Source: article PMC9967275, “Screening the Pathogen Box to Discover and Characterize New Cruzain and TbrCatL Inhibitors” (Pathogens, 2023)

Legend:
[1] = target: cruzain (Trypanosoma cruzi, UniProt P25779); experiment: biochemical; conditions: for Cruzain 0’ Inhibition / Cruzain 10’ Inhibition: sheet "Screening results"
Method in brief: (§1)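 Recombinant enzymes assayed by Z-Phe-Arg-AMC cleavage at 25 °C, fluorescence 340/440 nm over 5–7 min, with 10 min or no enzyme–compound preincubation.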

[2] = target: T1, TbrCatL (Trypanosoma brucei rhodesiense, UniProt Q95PM0); experiment: TbrCatL enzymatic inhibition assay (cleavage of fluorogenic substrate Z-FR-AMC); assay type: biochemical; conditions: for TbrCatL 0’ Inhibition / TbrCatL 10’ Inhibition: sheet "Screening results"
T1 construct: Conor Caffrey (University of California San Diego)
T1 sequence (Q95PM0 entry or part of it): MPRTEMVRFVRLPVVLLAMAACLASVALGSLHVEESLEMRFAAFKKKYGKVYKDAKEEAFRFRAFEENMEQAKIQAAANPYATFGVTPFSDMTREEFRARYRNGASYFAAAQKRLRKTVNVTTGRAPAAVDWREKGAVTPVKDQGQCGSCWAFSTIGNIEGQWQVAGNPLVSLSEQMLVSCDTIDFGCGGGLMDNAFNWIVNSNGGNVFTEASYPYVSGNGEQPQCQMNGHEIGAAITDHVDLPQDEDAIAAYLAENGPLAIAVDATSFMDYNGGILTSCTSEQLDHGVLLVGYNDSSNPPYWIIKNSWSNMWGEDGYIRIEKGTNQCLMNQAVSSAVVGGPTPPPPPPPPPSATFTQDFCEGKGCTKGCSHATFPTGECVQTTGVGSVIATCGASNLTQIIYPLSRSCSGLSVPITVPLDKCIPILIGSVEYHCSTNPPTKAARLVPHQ
Method in brief: as §1

[3] = 0’ (no pre-incubation), sheet Screening results
[4] = 10’ (pre-incubation), sheet Screening results
[5] = 0’ (pre-incubation time), Pathogen Box screening results
[6] = 10’ (pre-incubation time), Pathogen Box screening results
[7] = 5 µM, PB library solutions, 10 min pre-incubation, vs DMSO control

Chain of cruzain (P25779 123-337 limits assumed): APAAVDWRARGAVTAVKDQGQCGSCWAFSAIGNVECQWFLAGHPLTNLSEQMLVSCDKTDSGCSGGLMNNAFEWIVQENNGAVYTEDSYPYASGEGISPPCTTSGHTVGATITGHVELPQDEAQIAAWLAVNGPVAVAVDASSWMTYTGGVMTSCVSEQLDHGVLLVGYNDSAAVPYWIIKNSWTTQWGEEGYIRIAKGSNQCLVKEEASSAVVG

SMILES	Cruzain 0’ Inhibition ([1]; 0’ (pre-incubation time)) [%]	Cruzain 10’ Inhibition ([1]; 10’ (pre-incubation time)) [%]	TbrCatL 0’ Inhibition ([2]; 0’ (pre-incubation time)) [%]	TbrCatL 10’ Inhibition ([2]; 10’ (pre-incubation time)) [%]	Cruzain Inhibition 0’ [1, 3] [%]	Cruzain Inhibition 10’ [1, 4] [%]	TbrCatL Inhibition 0’ [2, 3] [%]	TbrCatL Inhibition 10’ [2, 4] [%]	also measured
CC(C)(C)c1ccc(N[C@@H]2CCCC[C@H]2NC(=O)c2ccco2)cc1 [MMV675969]	-8	-5	-4.6	-6					
COc1ccc(-c2nn(C(C)C)c3ncnc(N)c23)cc1OC [MMV675993]	-7	-1.8	-7	-5.6					
Clc1ccc(-n2cc(COc3ccnc4ccccc34)nn2)cc1 [MMV675994]	5	14	-1.8	11					
COc1ccc(N(CCc2cccc(C)n2)C(C)=O)cc1 [MMV675995]	2.8	1.9	-3	19					
COc1ccc(N(CCc2cccc(C)n2)C(=O)C2CCCCC2)cc1 [MMV675996]	-3	-2.2	-13	-10					
N#CCN(CCCCN1CCN(c2ccc(F)cc2)CC1)C(=O)OCc1ccccc1 [MMV675997]					1.2	3.2	1.6	5	
COc1ccc(C(=N)N)cc1-c1cn(-c2ccc(C(=N)N)cc2)nn1 [MMV675998]	6	26	2	34					
O=C(Nc1c(O)cccc1-c1nc2c(C(=O)O)cccc2o1)c1cc(-c2ccccc2)on1 [MMV676008]	-3.3	8	2.6	-3.7					
Clc1ccc(Cl)c(CO[C@H]2CCCC[C@@H]2n2ccnc2)c1 [MMV676048]	2.8	5.7	0.8	-3.8					
CS(=O)(=O)N1CCC(Cn2nc(Cc3cccc4ccccc34)c3c(N)ncnc32)CC1 [MMV676050]	0.2	8	0.1	3					
COc1cc(NC(=O)Cc2nn(C)c(=O)c3ccccc23)ccc1Cl [MMV676053]	0	1.7	1.2	1.5					
CC(C)(C)OC(=O)N1CCN(c2cc(-c3ccc(Oc4ccccc4)cc3)n[nH]2)CC1 [MMV676057]	-1.5	-3.4	-2.3	-12					
CCCCc1ccc(NC(=O)Nc2ccc(O[C@H]3CCCC[C@@H]3N(C)c3ccccc3)c(F)c2)cc1 [MMV676063]	-13	-3.3	-17	-15					
CC(=O)N(CCN(C(=O)c1ccc(F)cc1)c1ccccc1)c1ccccc1 [MMV676064]	-6	3	-5	-7					
Clc1cccc(CO[C@H]2CCc3ccccc3[C@@H]2n2ccnn2)c1 [MMV676159]	-3	-1.8	-13	-6					
c1ccc(Oc2ccc(-c3cc(CN4CCOCC4)[nH]n3)cc2)cc1 [MMV676161]	-1.3	1.7	-3	-2.5					
O=C(Nc1ccccc1-c1nc2c(C(=O)O)cccc2o1)c1ccccc1 [MMV676162]	8	9	2.6	6					
Nc1ncnc2c1c(Cc1cccc3ccccc13)nn2CC1CCNCC1 [MMV676182]	-4.4	4.5	1.4	3.4					
COC(=O)c1cccc2oc(-c3cccc(OC)c3NC(=O)c3cc(-c4ccccc4)on3)nc12 [MMV676186]	-3.5	5.3	-3.7	-5					
CC(C)C(Oc1cccc2ccccc12)C(=O)O (stereo not shown) [MMV676191]	2.8	1.5	-3	2					
O=C(c1ccc(F)cc1)N(CCNc1ccccc1)c1ccccc1 [MMV676204]					6	4.7	2.6	-1.3	

SMILES	Cruzain 0’ Inhibition ([1]; 0’ (pre-incubation time)) [%]	Cruzain 10’ Inhibition ([1]; 10’ (pre-incubation time)) [%]	TbrCatL 0’ Inhibition ([2]; 0’ (pre-incubation time)) [%]	TbrCatL 10’ Inhibition ([2]; 10’ (pre-incubation time)) [%]	Cruzain Inhibition 0’ [1, 3] [%]	Cruzain Inhibition 10’ [1, 4] [%]	TbrCatL Inhibition 0’ [2, 3] [%]	TbrCatL Inhibition 10’ [2, 4] [%]	also measured
CN1CCN(c2nccc3nc(-c4ccc(F)c(F)c4)[nH]c23)CC1 [MMV676260]	-9	1.2	0.7	5					
C[C@H](C(N)=O)N1CCCC[C@H]1c1ccc(OCc2cccc(F)c2)cc1 [MMV676269]	0.4	2	-3	-4.7					
C[C@H](C(N)=O)N1CCCC[C@@H]1c1ccc(OCc2cccc(F)c2)cc1 [MMV676270]									Cruzain Inhibition 0’ [1, 5]: 4.6%; Cruzain Inhibition 10’ [1, 6]: 9%; TbrCatL Inhibition 0’ [2, 5]: 3.2%; TbrCatL Inhibition 10’ [2, 6]: -0.6%
Cc1c[nH]c(CCNC(=O)c2cc(-c3ccc(Cl)cc3)cs2)n1 [MMV676350]					17	22	28	28	
Nc1ncc(Br)cc1-c1nc2cc(Cl)cnc2[nH]1 [MMV676358]	-2.8	8	-9	-2.5					
Brc1c(-c2ccc3c(c2)OCO3)nc2ncccn12 [MMV676377]					1.2	-0.9	5	-1.8	
COc1cccc(OCC(=O)c2ccc(Br)cc2)c1 [MMV676379]					8	14	9	20	
CC(=O)Nc1ccc(NC(=O)c2cc(-c3cc(Cl)ccc3O)n[nH]2)cc1 [MMV676380]					0.6	-0.9	-5	-3	
Cn1ncc2c(N3CCOCC3)nc(NCCc3c[nH]c4ccccc34)nc21 [MMV676382]					17	15	4.7	7.5	
CCC(Sc1nc2ccccc2o1)C(=O)Nc1nccs1 (stereo not shown) [MMV676383]					3.5	4	10	7.5	
N#Cc1nc(-c2ccccc2F)oc1NCCc1ccccc1 [MMV676384]	7	6	3.4	7					
Cc1cccc(Cn2ccc(NC(=O)c3ccc4c(c3)OCO4)n2)c1 [MMV676386]					8	2.6	2.8	1.8	
COc1cccc(-n2nnnc2S(=O)(=O)Cc2ccccc2)c1 [MMV676388]					15	12	18	15	
O=C(c1n[nH]c2c1CCCC2)N1CCN(Cc2ccc3c(c2)OCO3)CC1 [MMV676389]					-6	-3.4	-12	-7	
O=C(Nc1cccnc1)c1c(O)c2cccc3c2n(c1=O)CC3 [MMV676395]					10	8	17	19	
CCS(=O)(=O)N(Cc1ccco1)Cc1cc2ccc(C)cc2[nH]c1=O [MMV676398]	6.5	28	8	9					
c1coc(CNc2nc(N3CCCCC3)nc3ccccc23)c1 [MMV676401]					4.6	9	6.5	15	
CC(C)n1ncc2c(C(=O)NCC(c3cccs3)N3CCOCC3)cc(-c3ccccc3)nc21 (stereo not shown) [MMV676406]					6	6	17	15	
O=C(COc1cccc(F)c1)Nc1nc(-c2ccccn2)cs1 [MMV676409]					-227		-77		Increase in the initial velocity of the reaction (%) 5 µM using PB samples Cruzain [1, 7]: 510 ± 216%; Increase in the initial velocity of the reaction (%) 5 µM using solid samples Cruzain ([1]; 5 µM, solid samples, 10 min pre-incubation, vs DMSO control): -4 ± 2%; Increase in the initial velocity of the reaction (%) 100 µM using solid samples Cruzain ([1]; 100 µM, solid samples, 10 min pre-incubation, vs DMSO control): 0 ± 6%; Increase in the enzyme velocity in confirmatory assays ([1]; solid samples, varying compound concentrations): no increase in the enzyme velocity; Increase in the initial velocity of the reaction (%) 5 µM using PB samples TbrCatL [2, 7]: 772 ± 382%; Increase in initial velocity of substrate cleavage in comparison to the DMSO control ([2]; TbrCatL 10′ inc, screening at 5 µM): up to 8 fold
CC(Oc1ccccc1)C(=O)Nc1nc(-c2ccccn2)cs1 (stereo not shown) [MMV676411]	-2.3	0.8	-14	-0.8					
N#Cc1nc(-c2ccccc2)oc1S(=O)(=O)c1ccc(Cl)cc1 [MMV676412]					6	-27	5.5	-69	
